Results as given in patent US20150337003A1, “ABIRATERONE AND ANALOGS THEREOF FOR THE TREATMENT OF DISEASES ASSOCIATED WITH CORTISOL OVERPRODUCTION” (CORTENDO AB (PUBL), priority 2013, published 2015).
Converted amounts (≈) assume the structure as drawn.

Tests used:
Cyp17 = target: T1, Cyp17 (Homo sapiens, UniProt P05093); test: biochemical; settings: read-out: Cyp17 IC60 (nM)
T1 sequence (P05093 1-508): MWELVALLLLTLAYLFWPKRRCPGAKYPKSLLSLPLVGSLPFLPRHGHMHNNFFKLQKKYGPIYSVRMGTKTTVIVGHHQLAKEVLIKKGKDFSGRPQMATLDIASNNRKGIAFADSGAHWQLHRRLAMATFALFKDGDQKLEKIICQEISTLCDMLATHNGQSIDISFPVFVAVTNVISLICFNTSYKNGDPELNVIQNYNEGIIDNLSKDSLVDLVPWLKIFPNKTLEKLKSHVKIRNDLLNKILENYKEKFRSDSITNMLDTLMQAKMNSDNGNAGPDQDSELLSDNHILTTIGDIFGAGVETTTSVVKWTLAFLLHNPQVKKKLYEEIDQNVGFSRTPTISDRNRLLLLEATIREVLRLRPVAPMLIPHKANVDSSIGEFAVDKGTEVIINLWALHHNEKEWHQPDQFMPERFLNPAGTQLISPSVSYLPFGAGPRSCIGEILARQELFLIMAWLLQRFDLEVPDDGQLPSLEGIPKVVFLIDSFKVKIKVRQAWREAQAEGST

[1] = HLM t1/2 (microsomal stability); type: in vitro ADME; settings: human, liver microsomes
[2] = test system: cortisol and testosterone after ACTH stimulation; test: elevation of cortisol and testosterone after ACTH stimulation in male Guinea pigs; type: in vivo, Guinea pig; settings: for Cortisol, plasma / testosterone, plasma / Cortisol, plasma, Mean / testosterone, plasma, Mean: 25 IU/kg ACTH + 100 mg/kg PO; for Cortisol, plasma, Mean: mean of 4 Guinea pigs
Procedure: Each animal was dosed by oral gavage according to the following table at −0.5 hr, and then dosed by intramuscular injection with ACTH 25 IU/kg at 0 hr.
Animals were sedated under general inhalant anesthesia (3% isoflurane) and blood samples were retrieved at 1, 2 and 4 hrs via saphenous vein. Blood aliquots (400 uL) were collected in tubes coated with K2-EDTA, mixed gently, then kept on ice and centrifuged at 2,000 g for 5 minutes at 4° C. within 15 minutes of collection. The plasma was then harvested and kept frozen at −80° C. until further processing.

Cyp3A4 = Cyp3A4 (Homo sapiens, UniProt P08684); test: in vitro enzyme profile: Cyp3A4 inhibition; type: in vitro ADME
Cyp2C9 = Cyp2C9 (Homo sapiens, UniProt P11712); test: in vitro enzyme profile: Cyp2C9 inhibition; type: in vitro ADME
Cyp2D6 = Cyp2D6 (Homo sapiens, UniProt P10635); test: in vitro enzyme profile: Cyp2D6 inhibition; type: in vitro ADME
Solubility = type: physicochemical
Cyp21 = target: T2, Cyp21 (Homo sapiens, UniProt P08686); test: in vitro enzyme profile: Cyp21 inhibition; type: biochemical
T2 sequence (P08686 1-495): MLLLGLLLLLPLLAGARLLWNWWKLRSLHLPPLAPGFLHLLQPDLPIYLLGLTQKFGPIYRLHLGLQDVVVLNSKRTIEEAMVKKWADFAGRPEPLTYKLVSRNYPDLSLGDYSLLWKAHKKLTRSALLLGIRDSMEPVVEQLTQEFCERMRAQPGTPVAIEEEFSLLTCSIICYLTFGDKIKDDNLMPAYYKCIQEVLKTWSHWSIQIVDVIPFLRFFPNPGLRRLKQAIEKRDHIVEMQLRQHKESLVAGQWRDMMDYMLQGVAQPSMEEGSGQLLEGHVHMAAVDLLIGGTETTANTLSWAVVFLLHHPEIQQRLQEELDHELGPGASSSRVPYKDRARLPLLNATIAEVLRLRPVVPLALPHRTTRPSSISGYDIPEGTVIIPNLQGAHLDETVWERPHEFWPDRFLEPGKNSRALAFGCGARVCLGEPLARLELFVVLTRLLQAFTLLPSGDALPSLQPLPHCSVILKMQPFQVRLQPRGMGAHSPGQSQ

Cyp11 = test: in vitro enzyme profile: Cyp11 inhibition; type: biochemical
[3] = GPLM t1/2 (microsomal stability); type: in vitro ADME; settings: guinea pig, liver microsomes
[4] = male Guinea pigs, ACTH stimulation, 100 mg/kg PO, vs vehicle

Cyp2D6, sequence (P10635 whole entry): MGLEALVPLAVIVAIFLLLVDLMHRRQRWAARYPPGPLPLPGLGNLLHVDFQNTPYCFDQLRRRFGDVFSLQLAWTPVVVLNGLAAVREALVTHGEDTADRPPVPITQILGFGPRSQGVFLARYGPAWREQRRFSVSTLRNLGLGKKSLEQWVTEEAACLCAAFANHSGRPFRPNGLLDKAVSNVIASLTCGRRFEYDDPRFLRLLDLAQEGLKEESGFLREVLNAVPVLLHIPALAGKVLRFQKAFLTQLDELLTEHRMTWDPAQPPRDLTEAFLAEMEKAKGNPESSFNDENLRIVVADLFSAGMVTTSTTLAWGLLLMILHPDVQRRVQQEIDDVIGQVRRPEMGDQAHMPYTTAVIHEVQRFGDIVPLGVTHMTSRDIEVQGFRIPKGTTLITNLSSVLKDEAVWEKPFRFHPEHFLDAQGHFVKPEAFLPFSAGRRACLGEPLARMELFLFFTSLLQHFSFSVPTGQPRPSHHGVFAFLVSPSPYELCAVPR
Cyp3A4, sequence (P08684 whole entry): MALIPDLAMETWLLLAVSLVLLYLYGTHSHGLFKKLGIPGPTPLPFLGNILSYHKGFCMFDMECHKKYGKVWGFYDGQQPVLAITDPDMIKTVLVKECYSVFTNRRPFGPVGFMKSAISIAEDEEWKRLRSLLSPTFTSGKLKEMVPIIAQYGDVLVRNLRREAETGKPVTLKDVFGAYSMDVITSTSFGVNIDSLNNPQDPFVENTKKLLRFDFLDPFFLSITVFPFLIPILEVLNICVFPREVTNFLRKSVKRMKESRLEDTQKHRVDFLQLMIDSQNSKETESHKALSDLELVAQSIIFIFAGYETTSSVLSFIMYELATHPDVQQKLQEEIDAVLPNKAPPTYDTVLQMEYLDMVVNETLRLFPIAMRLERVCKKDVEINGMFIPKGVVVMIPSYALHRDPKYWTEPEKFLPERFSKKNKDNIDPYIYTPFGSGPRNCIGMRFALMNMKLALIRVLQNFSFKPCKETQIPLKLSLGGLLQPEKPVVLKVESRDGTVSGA
Cyp2C9, sequence (P11712 whole entry): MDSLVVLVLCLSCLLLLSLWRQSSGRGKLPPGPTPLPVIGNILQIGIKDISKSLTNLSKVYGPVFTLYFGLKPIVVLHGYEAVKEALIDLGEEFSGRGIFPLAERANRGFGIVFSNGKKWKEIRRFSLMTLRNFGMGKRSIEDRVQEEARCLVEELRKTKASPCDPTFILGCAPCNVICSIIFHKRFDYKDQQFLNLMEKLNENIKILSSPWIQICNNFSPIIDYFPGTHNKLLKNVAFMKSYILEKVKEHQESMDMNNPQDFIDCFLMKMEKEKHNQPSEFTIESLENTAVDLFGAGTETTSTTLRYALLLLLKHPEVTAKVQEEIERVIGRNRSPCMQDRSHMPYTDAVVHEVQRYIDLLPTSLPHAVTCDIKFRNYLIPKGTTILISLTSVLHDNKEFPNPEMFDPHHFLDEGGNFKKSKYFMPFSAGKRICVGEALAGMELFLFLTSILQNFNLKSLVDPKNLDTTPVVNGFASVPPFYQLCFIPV

C[C@]12CC[C@H](O)CC1=CC[C@@H]1[C@@H]2CC[C@]2(C)C(c3cccnc3)=CC[C@@H]12 [abiraterone, (3S,8R,9S,10R,13S,14S)-10,13-dimethyl-17-(pyridin-3-yl)-2,3,4,7,8,9,10,11,12,13,14,15-dodecahydro-1H-cyclopenta[a]phenanthren-3-ol]
IC60 (Cyp17): 1.78 nM | half-life [1]: 60 min | Cortisol, plasma ([2]; Guinea pig#19, 1 hr): 692 ng/mL | testosterone, plasma ([2]; Guinea pig#19, 1 hr): BQL | Cortisol, plasma ([2]; Guinea pig#19, 2 hr): 574 ng/mL | testosterone, plasma ([2]; Guinea pig#19, 2 hr): BQL | Cortisol, plasma ([2]; Guinea pig#19, 4 hr): 320 ng/mL | testosterone, plasma ([2]; Guinea pig#19, 4 hr): 0.328 ng/mL | Cortisol, plasma ([2]; Guinea pig#20, 1 hr): 821 ng/mL | testosterone, plasma ([2]; Guinea pig#20, 1 hr): BQL | Cortisol, plasma ([2]; Guinea pig#20, 2 hr): 720 ng/mL | testosterone, plasma ([2]; Guinea pig#20, 2 hr): 0.473 ng/mL | Cortisol, plasma ([2]; Guinea pig#20, 4 hr): 461 ng/mL | testosterone, plasma ([2]; Guinea pig#20, 4 hr): BQL | Cortisol, plasma ([2]; Guinea pig#21, 1 hr): 659 ng/mL | testosterone, plasma ([2]; Guinea pig#21, 1 hr): BQL | Cortisol, plasma ([2]; Guinea pig#21, 2 hr): 470 ng/mL | testosterone, plasma ([2]; Guinea pig#21, 2 hr): BQL | Cortisol, plasma ([2]; Guinea pig#21, 4 hr): 325 ng/mL | testosterone, plasma ([2]; Guinea pig#21, 4 hr): BQL | Cortisol, plasma ([2]; Guinea pig#22, 1 hr): 970 ng/mL | testosterone, plasma ([2]; Guinea pig#22, 1 hr): 0.501 ng/mL | Cortisol, plasma ([2]; Guinea pig#22, 2 hr): 876 ng/mL | testosterone, plasma ([2]; Guinea pig#22, 2 hr): 0.520 ng/mL | Cortisol, plasma ([2]; Guinea pig#22, 4 hr): 529 ng/mL | testosterone, plasma ([2]; Guinea pig#22, 4 hr): 0.461 ng/mL | effect on cortisol levels [2, 4]: significantly lower | effect on testosterone levels [2, 4]: significantly lower | Cortisol, plasma, Mean ([2]; 1 hr): 786 ng/mL | Cortisol, plasma, Mean ([2]; 2 hr): 660 ng/mL | Cortisol, plasma, Mean ([2]; 4 hr): 409 ng/mL | testosterone, plasma, Mean ([2]; 1 hr): 0.501 ng/mL | testosterone, plasma, Mean ([2]; 2 hr): 0.497 ng/mL | testosterone, plasma, Mean ([2]; 4 hr): 0.395 ng/mL | Cyp3A4 IC60 (Cyp3A4): 969 nM | Cyp2C9 IC60 (Cyp2C9): 2000 nM | Cyp2D6 IC60 (Cyp2D6): 2000 nM | solubility (Solubility): 1 µM (≈ 0.35 µg/mL) | IC60 (Cyp21): 1550 nM | Cyp11 IC60 (Cyp11): 430 nM | half-life [3]: 7.7 min
